Measured values from US8846914B2, “Compositions to effect neuronal growth” (Neuralstem, Inc., priority 2003, dated 2014).

Assays:
[1] = tested on: human hippocampal stem cells; experiment: Neurogenesis, TuJ1 immunostaining / Hoechst (primary screen); assay type: cell-based
Text: FIG. 2 is a bar graph illustrating an example of a neurogenesis profile of compounds selected from primary screening. After seven days of compound treatment, the cells were stained with the neuron-specific anti-tubulin IIIb antibody. TuJ1, for neurons and Hoechst for all cell nuclei. Shown are the relative ratio of neuron: total cells for each compound over the vehicle control in percentage. Typical ratio for vehicle control is 40-50% neurons. The ratio can change by either increased differentiation of stem cells to neurons, decreased proliferation of astrocytes, or increased proliferation of neuronal progenitors.
FIG. 3 is a bar graph illustrating an example of a neurogenesis profile of compounds selected from primary screening. After seven days of compound treatment, the cells were stained with TuJ1 for neurons. The number of TuJ1+ neurons per area was quantified and expressed as a relative value to the vehicle treated control.
The final neuron number is detected by immunostaining of the culture with antibodies against neurons and is quantified by counting of the immunopositive neurons and/or by measuring the staining intensity. Therefore, after seven days of compound treatment, the cells are stained with the neuron-specific anti-tubulin IIIb antibody, TuJ1, for neurons and Hoechst for all cell nuclei. The number of TuJ1+ neurons per area is quantified and expressed as a value relative to the vehicle-treated control of Hoechst-stained cells. In this regard, the medium is removed from the wells by decanting and blotting the plates on paper towels. The cells are then fixed in 100 μl of 4% paraformaldehyde per well for thirty minutes at room temperature. The cells are washed three times with 400 μl per well of phosphate-buffered saline (PBS) at pH 7.5 for approximately ten minutes per wash. The plates are then stored at 4° C. in PBS or used immediately for staining.
The cells are subsequently stained with antibodies against neuron-specific antigens according to standard procedures. The staining process includes decanting the PBS and blocking the cells with 100 μl of 5% Normal Goat Serum (NGS) in PBS for one hour at room temperature. The NGS/PBS is decanted and the plates are blotted on a paper towel. The cells are then permeabilized with 0.1% Triton X-100 in PBS for 30 minutes at room temperature.
Typical neuron-specific antigens include Type III-beta tubulin and MAP-2c. The total cell number in each well was quantified by staining the cultures with a nuclear dye such as DAPI or Hoechst according to standard procedures. Therefore, once the cells are permeabilized, 20 μl of TuJ1, monoclonal antibody against neuronal class 111 β-tubulin (CoVance (BabCo) MMS-435P) and 32 μl of anti-GFAP polyclonal (DAKO Z0334) are added to and mixed of PBS with 5% NGS. Final dilutions of TuJ1 and anti-GFAP are 1:400 and 1:250, respectively. 90 μl of the antibody solution is added to each well except two eleventh column. 90 μl of PBS/5% NGS is added to the eleventh column and no cells are added to the twelfth column. The plate(s) are sealed with parafilm and incubated at 4° C. overnight.
After incubating the cells overnight, the antibody solution is decanted and 200 μl of PBS/0.1% Triton X-100 is added to the wells. The plate(s) are placed on a shaker and incubated at room temperature with gentle shaking for ten minutes. The cells are again washed with the PBS/Triton X-100 solution another two times.
Following staining with TuJ1 and anti-GFAP, 20 μl of Alexa Fluor 488 labeled goat anti-moose IgG (H+L) (Molecular Probes A-11001) and 100 μl of LRSC-IgG, goat anti-rabbit (Jackson Immune 111-295-144) is added and mixed with 10 ml of PBS/5% NGS. 100 μl of the resulting antibody solution is added to each well. The plate(s) are covered with foil and incubated with gentle shaking for up to one hour at room temperature. The cells are again washed as described above with PBS and an Triton X-100. […]

[2] = tested on: human hippocampal stem cells; details: positive control; as described in U.S. Ser. No. 10/728,652; cited from earlier work

| Molecule | Activity in primary in vitro neurogenesis screen [1] | Increase of the number of neurons and glia [2] |
| --- | --- | --- |
| COc1ccc(C2CNC(=O)C2)cc1OC1CCCC1 (centres unmarked) [Rolipram, reference compound] | effective | – |
| LIF: leukemia inhibitory factor (LIF), a cytokine growth factor, positive control | – | two to three-fold |
